From US11406721B2, “Compositions and methods for imaging cell populations” (The Regents of the University of California, priority 2016, dated 2022)

Columns and labels:
Type in all cases: physicochemical
[1] = Kinetic measurements of metal uptake into emulsion (UV-Vis); conditions: emulsion from example 4
Procedure: FIG. 15. Time course of metalation of FETRIS nanoemulsion with Fe^3+. Shown is the metalation of emulsion B (70 μM pAn-FDK and 10 μM Fe^3+, 8 mM HCl, pH 2.1). A single exponential fit yields kobs=0.69±0.10 min^−1
Strong absorbance of aromatic diketone and its complexes permits facile kinetic investigation of metalation rates. In atypical measurement, emulsion from example 4 was diluted to 70 uM diketone (excess ligand, modeling radiolabeling conditions) into a solution of chosen pH and treated with 10 uM metal cations of relevance to medical imaging, including Fe^3+ (MRI), Cu^2+ (PET), Ga^3+ (PET, SPECT), Sc^3+ (PET), and In^3+ (SPECT). In all cases, UV-Vis spectral changes indicative of metal uptake into the fluorous phase were detected, proportional in magnitude to the amount of metal. For some metals, kinetic analysis was performed. The reaction time course fit well to a pseudo-first-order process with rate constant kobs (Table 4).

[2] = 19F relaxometry of organic solutions containing paramagnetic dpm complexes; conditions: 50 mM complexes in 1:1 v/v PhCF3:acetone-d6, 9.4 T
Procedure: FIG. 10. ^19F relaxometry of organic solutions containing paramagnetic complexes. Relaxation rates of the CF3 group were measured in the presence of 50 mM tris-(dipivaloylmethanato) complexes Fe(dpm)3 (left) and Gd(dpm)3 (right) in 1:1 v/v PhCF3:acetone-d6 at 9.4 T in a sealed 5 mm NMR tubes. […] Solid lines are guide for the eye. While monomeric Fe(dpm)3 was highly soluble in PhCF3 alone, polymeric Gd(dpm)3 dissolved only in the presence of Lewis basic solvent acetone-d6. […] The observed ratio between R1(Gd) and R1(Fe) was 1.72-1.77, consistent with the expected 1.8-fold difference due to the S(S+1) term in Eq. S, curtailed by a slight increase in the distance of minimal approach due to the larger size of Gd.
To highlight the critical effect of viscosity on relaxation rates, we measured PRE caused by different metal ions in non-viscous organic solutions containing trifluorotoluene (PhCF3) and iron or gadolinium chelates of dipivaloylmethane, Fe(dpm)3 and Gd(dpm)3. Under these conditions, gadolinium provided higher R1 than iron, as expected from the greater spin of Gd^3+. […] In contrast, the divergent temperature dependence of R1 and R2 in FETRIS nanoemulsion (FIG. 3D) is indicative of slow molecular motion in the fluorous phase.

[3] = Small fluorinated diketones: relaxation enhancement and stability under EDTA competition and cell labeling; conditions: metalated small fluorinated diketones
Source text: It may be necessary for sufficient stability to use fluorinated diketones with heavily fluorinated substituents that are well-miscible with other fluorinated agents known in the art to be useful for ^19F MRI.

[4] = 19F relaxometry of PFPE nanoemulsion doped with H-fod and metal chloride; conditions: 9.4 T
Source text: FIG. 1. Comparison of iron and gadolinium diketonates (H-fod) as ^19F relaxation agents for PFPE. […] R1 and R2 values are reported for the main PFPE peak at −91.4 ppm.
FIG. 11. ^19F relaxometry of PFPE with metalated small diketones. PFPE nanoemulsion was doped in the fluorous phase with small fluorinated diketones H-fod and H-hfp. […] The left panels display broad ^19F NMR signals of CF2 groups of H-fod and H-hfp observed in the absence of metals indicating poor solubility of the ligands in the fluorous phase. […] The right panel show the time course of metalation of PFPE+H-fod nanoemulsion measured by ^19F relaxometry. R1 and R2 were measured for main PFPE peak at −91 ppm at different time points. The solid lines are guides for the eye. The appearance of orange color of Fe(fod)3 correlated with an increase in relaxation rates. Metalation of PFPE emulsions doped with H-fod with Fe^3+ was several orders of magnitude slower than metalation of emulsions containing pAn-FDK (FIG. 15).
Initially, the results of the PRE modeling [Example 2 and FIG. 9] using small molecules were tested. Fluorinated β-diketone H-fod (FIG. 1) was chosen as starting point. […] Addition of 0.7 mM FeCl3 led to the slow formation of orange-colored Fe(fod)3 and a commensurate increase in R1 from 2.3 to 27.0 s^−1 and in R2 from 4.0 to 85.6 s^−1 (at 9.4 T) of the major PFPE resonance (−91.4 ppm) by 24 hours (FIG. 11). With GdCl3, lower R1 (12.8 s^−1) and higher R2 (285 s^−1) values were obtained.

[5] = final [M^3+] 10 uM, [ligand] 70 uM, pH 2.1 (8 mM HCl)

Row | Structure (SMILES) | enhancing relaxation [3] | stability under the conditions of EDTA competition and cell labeling [3] | other results
1 | [Cl][Fe]([Cl])[Cl] [FeCl3] |  |  | kobs ([1]; final [M^3+] 5 uM, [ligand] 70 uM, pH 2.1 (8 mM HCl)): 0.79 min⁻¹; kobs [1, 5]: 0.70 min⁻¹
2 | [Cl][Ga]([Cl])[Cl] [GaCl3] |  |  | kobs [1, 5]: 0.043 min⁻¹
3 | CC(C)(C)C(=O)C=C(O)C(C)(C)C.CC(C)(C)C(=O)C=C(O)C(C)(C)C.CC(C)(C)C(=O)C=C(O)C(C)(C)C.[Gd] [Gd(dpm)3] |  |  | ratio between R1(Gd) and R1(Fe) [2]: 1.72-1.77
4 | O=C(/C=C(\O)c1ccccc1)C(F)F [H-bda] | highly effective | not stable enough | 
5 | O=C(CC(=O)C(F)(F)F)c1ccccc1 [H-bta] | highly effective | not stable enough | 
6 | CC(C)(C)/C(O)=C/C(=O)C(F)(F)C(F)(F)C(F)(F)F [H-fod] | highly effective | not stable enough | R1 of major PFPE resonance (−91.4 ppm) ([4]; PFPE nanoemulsion + 2.8 mM H-fod + 0.7 mM FeCl3, by 24 hours): 27.0 s⁻¹; R1 of major PFPE resonance ([4]; PFPE nanoemulsion + 2.8 mM H-fod with GdCl3): 12.8 s⁻¹; R1 of major PFPE resonance (−91.4 ppm) ([4]; PFPE nanoemulsion + 2.8 mM H-fod, before metal addition): 2.3 s⁻¹
7 | C/C(O)=C/C(=O)C(F)(F)C(F)(F)C(F)(F)F [H-hhd] | highly effective | not stable enough | 
8 | C/C(O)=C/C(=O)C(F)(F)C(F)(F)C(F)(F)C(F)(F)C(F)(F)C(F)(F)F [H-tdd] | highly effective | not stable enough | 
9 | O=C(CC(=O)C(F)(F)F)c1cccs1 [H-tta] | highly effective | not stable enough | 
10 | [Cl-].[Cl-].[Cl-].[In+3] [InCl3] |  |  | kobs ([1]; final [M^3+] 2 uM, [ligand] 14 uM, pH ~5 (unbuffered H2O)): >10 min⁻¹; kobs ([1]; final [M^3+] 10 uM, [ligand] 70 uM, pH 7.4 HEPES): 0.0322 min⁻¹
